This is an account of results in publication PMC8745314, “Novel Tetrazole-Based Antimicrobial Agents Targeting Clinical Bacteria Strains: Exploring the Inhibition of Staphylococcus aureus DNA Topoisomerase IV and Gyrase” (International Journal of Molecular Sciences, 2021).

In general, IC50 refers to the concentration at which inhibition is half-maximal.

For experiment [1], the system named is S. epidermidis ATCC 35984. Nature of the experiment: MIC broth microdilution, standard strain. The following applies: Staphylococcus epidermidis, ATCC35984; S. epidermidis ATCC 35984, standard strain, 19 h at 35 °C; read-out: minimal inhibitory concentration (MIC). The format is cell-based. On the procedure:
(§1) All synthesized compounds were tested in vitro against a set of bacteria, including representative standard Gram-positive and Gram-negative rods. Compounds were screened for their minimal inhibitory concentrations (MICs). […] The antimicrobial assays were conducted using reference strains of bacteria derived from international microbe collections: American Type Culture Collection (ATCC) and National Collection of Type Culture (NCTC). The following standard strains of bacteria were used: Gram-positive-Staphylococcus aureus NCTC 4163, Staphylococcus aureus ATCC 25923, Staphylococcus aureus ATCC 6538, Staphylococcus aureus ATCC 29213, Staphylococcus epidermidis ATCC 12228, Staphylococcus epidermidis ATCC 35984, Gram-negative: Escherichia coli ATCC 25922, Pseudomonas aeruginosa ATCC 15442. Clinical strains of bacteria used in this study: Gram-positive: Staphylococcus epidermidis 5253, Staphylococcus epidermidis 4243, Staphylococcus aureus […], Staphylococcus aureus […] and Gram-negative: Escherichia coli 520, Escherichia coli 600, Klebsiella pneumoniae 510 and Pseudomonas aeruginosa 659 were obtained from the collection of the Department of Pharmaceutical Microbiology, Medical University of Warsaw, Poland and they were isolated from different biological materials taken from the patients hospitalized in the Warsaw Medical University hospitals. […] MIC was determined by the two-fold serial broth microdilution method in 96-well microtitration plates using Mueller-Hinton II broth medium (Becton Dickinson, Franklin Lakes, NJ, USA). The final inoculum of all studied bacteria was 10^6 CFU/mL (colony forming unit per milliliter). The stock solution of tested compounds was prepared in dimethyl sulfoxide (DMSO) and diluted to a maximum of 1% of solvent content with a sterile medium.
In general terms: In broth dilution the organism is exposed to a series of concentrations in liquid medium.

The test system of another experiment is S. aureus ATCC 29213. The experiment is described as follows: MIC broth microdilution, standard strain. The settings on record: Staphylococcus aureus, ATCC29213; S. aureus ATCC 29213, standard strain, 19 h at 35 °C; read-out: minimal inhibitory concentration (MIC). Format: cell-based. On the procedure: as §1
A further experiment deals with S. aureus ATCC 6538. Nature of the experiment: MIC broth microdilution, standard strain. Format: cell-based. The following applies: Staphylococcus aureus, ATCC6538; S. aureus ATCC 6538, standard strain, 19 h at 35 °C; read-out: minimal inhibitory concentration (MIC). How it is done: as §1
Experiment [2] deals with S. epidermidis ATCC 12228. The experiment is described as follows: MIC broth microdilution, standard strain. The format is cell-based. The following applies: Staphylococcus epidermidis, ATCC12228; S. epidermidis ATCC 12228, standard strain, 19 h at 35 °C; read-out: minimal inhibitory concentration (MIC). How it is done:
as §1

For the next experiment, the system named is S. aureus ATCC 25923. The experiment is described as follows: MIC broth microdilution, standard strain. The settings on record: Staphylococcus aureus, ATCC25923; S. aureus ATCC 25923, standard strain, 19 h at 35 °C; read-out: minimal inhibitory concentration (MIC). The format is cell-based. How it is done: (§2) All synthesized compounds were tested in vitro against a set of bacteria, including representative standard Gram-positive and Gram-negative rods. Compounds were screened for their minimal inhibitory concentrations (MICs). […] These three compounds were also found to be good inhibitors of the growth of Gram-negative rods: […] The antimicrobial assays were conducted using reference strains of bacteria derived from international microbe collections: American Type Culture Collection (ATCC) and National Collection of Type Culture (NCTC). The following standard strains of bacteria were used: Gram-positive-Staphylococcus aureus NCTC 4163, Staphylococcus aureus ATCC 25923, Staphylococcus aureus ATCC 6538, Staphylococcus aureus ATCC 29213, Staphylococcus epidermidis ATCC 12228, Staphylococcus epidermidis ATCC 35984, Gram-negative: Escherichia coli ATCC 25922, Pseudomonas aeruginosa ATCC 15442. Clinical strains of bacteria used in this study: Gram-positive: Staphylococcus epidermidis 5253, Staphylococcus epidermidis 4243, Staphylococcus aureus […], Staphylococcus aureus […] and Gram-negative: Escherichia coli 520, Escherichia coli 600, Klebsiella pneumoniae 510 and Pseudomonas aeruginosa 659 were obtained from the collection of the Department of Pharmaceutical Microbiology, Medical University of Warsaw, Poland and they were isolated from different biological materials taken from the patients hospitalized in the Warsaw Medical University hospitals. Antimicrobial activity was examined by the minimal inhibitory concentration (MIC) method under standard procedures provided by CLSI with some modifications. MIC was determined by the two-fold serial broth microdilution method in 96-well microtitration plates using Mueller-Hinton II broth medium (Becton Dickinson, Franklin Lakes, NJ, USA). The final inoculum of all studied bacteria was 10^6 CFU/mL (colony forming unit per milliliter). The stock solution of tested compounds was prepared in dimethyl sulfoxide (DMSO) and diluted to a maximum of 1% of solvent content with a sterile medium.

For another experiment, the system named is P. aeruginosa ATCC 15442. Nature of the experiment: MIC broth microdilution, standard strain. Format: cell-based. The settings on record: Pseudomonas aeruginosa, ATCC15442; P. aeruginosa ATCC 15442, standard strain, 19 h at 35 °C; read-out: minimal inhibitory concentration (MIC). How it is done: as §2
The subject of a further experiment is S. aureus NCTC 4163. The experiment is described as follows: MIC broth microdilution, standard strain. Format: cell-based. The following applies: Staphylococcus aureus, NCTC4163; S. aureus NCTC 4163, standard strain, 19 h at 35 °C; read-out: minimal inhibitory concentration (MIC). How it is done: as §2
The next experiment concerns E. coli ATCC 25922. Nature of the experiment: MIC broth microdilution, standard strain. Format: cell-based. The following applies: Escherichia coli, ATCC25922; E. coli ATCC 25922, standard strain, 19 h at 35 °C; read-out: minimal inhibitory concentration (MIC). How it is done:
as §2

The target of experiment [3] is S. aureus topoisomerase IV (Staphylococcus aureus, UniProt P0C1S7+P0C1U9). Nature of the experiment: Topoisomerase IV decatenation assay. Format: biochemical. The following applies: decatenation of kinetoplast DNA, read-out: IC50 ± S.E.M. for Topoisomerase IV (converted). How it is done: Description related to conducted biological studies including cell culture, suitable conditions, and methodology was presented in our previous paper.
Figure 1 The effect of tested compounds on S. aureus topoisomerase IV activity. Decreasing amounts of 1, 2, or 3 were incubated with 200 ng kinetoplast DNA and run-on agarose gel. Lane: 1–5: compound 3 at concentrations 64, 32, 8, 2, 0.5 μg/mL, respectively. Lane: 6–10: compound 2 at concentrations 64, 32, 8, 2, 0.5 μg/mL, respectively. Lane: 11–15: compound 1 at concentrations 64, 32, 8, 2, 0.5 μg/mL, respectively.

In brackets after ≈: the same amount, converted by molar mass.

Take `CC1=C(C)C2(C)CC1(C)C1C(=O)N(Nc3nnnn3-c3ccc(C)cc3)C(=O)C12` (centres unmarked) [Compound 5, 4,5,6,7-Tetramethyl-2-((1-(p-tolyl)-1H-tetrazol-5-yl)amino)-3a,4,7,7a-tetrahydro-1H-4,7-methanoisoindole-1,3(2H)-dione]: the MIC (in experiment [1]; in the experiment on S. aureus ATCC 29213; in the experiment with S. aureus ATCC 6538; in experiment [2]; in the experiment on S. aureus ATCC 25923; with P. aeruginosa ATCC 15442) was > 256 µg/mL each time. In addition, the MIC in the experiment with S. aureus NCTC 4163 and in the experiment on E. coli ATCC 25922 was > 256 µg/mL throughout.
With `COc1c(N2C[C@@H]3CCCN[C@@H]3C2)c(F)cc2c(=O)c(C(=O)O)cn(C3CC3)c12` [Moxifloxacin, reference compound], in [3], the IC50 was 2240 nM.
Turning to `CC(C)C12C=CC(C)(CC1)C1C(=O)N(Nc3nnnn3-c3ccccc3)C(=O)C12` (centres unmarked) [Compound 11, 4-Isopropyl-7-methyl-2-((1-phenyl-1H-tetrazol-5-yl)amino)-3a,4,7,7a-tetrahydro-1H-4,7-ethanoisoindole-1,3(2H)-dione], the MIC in experiment [1] was 128 µg/mL (≈ 326 µM); in the experiment with S. aureus ATCC 29213, 128 µg/mL (≈ 326 µM); with S. aureus ATCC 6538, 128 µg/mL (≈ 326 µM); in [2] it was 256 µg/mL (≈ 652 µM); with S. aureus ATCC 25923, 128 µg/mL (≈ 326 µM); in the experiment with P. aeruginosa ATCC 15442 it was > 256 µg/mL. Further, the MIC in the experiment with S. aureus NCTC 4163 was 128 µg/mL (≈ 326 µM); in the experiment with E. coli ATCC 25922, > 256 µg/mL.
Take `O=C(O)c1cn(C2CC2)c2cc(N3CCNCC3)c(F)cc2c1=O` [Ciprofloxacin, reference compound]: the MIC in the experiment on S. aureus ATCC 25923 came out at 0.5 µg/mL (≈ 1.51 µM); in the experiment on P. aeruginosa ATCC 15442 it was 0.125 µg/mL (≈ 0.377 µM); in the experiment on S. aureus NCTC 4163, 0.125 µg/mL (≈ 0.377 µM); in the experiment with E. coli ATCC 25922, 0.015 µg/mL (≈ 0.0453 µM).
Consider `CC(C)C12C=CC(C)(CC1)C1C(=O)N(Nc3nnnn3-c3ccccc3Cl)C(=O)C12` (centres unmarked) [Compound 7, 2-((1-(2-Chlorophenyl)-1H-tetrazol-5-yl)amino)-4-isopropyl-7-methyl-3a,4,7,7a-tetrahydro-1H-4,7-ethanoisoindole-1,3(2H)-dione], for which the MIC in experiment [1] is 32 µg/mL (≈ 75 µM); in the experiment on S. aureus ATCC 29213, 64 µg/mL (≈ 150 µM); with S. aureus ATCC 6538, 32 µg/mL (≈ 75 µM); in [2], 128 µg/mL (≈ 300 µM); in the experiment with S. aureus ATCC 25923, 32 µg/mL (≈ 75 µM); in the experiment on P. aeruginosa ATCC 15442 it was > 256 µg/mL. The MIC was determined as 32 µg/mL (≈ 75 µM) in the experiment on S. aureus NCTC 4163 and 128 µg/mL (≈ 300 µM) in the experiment with E. coli ATCC 25922.
